Source: patent US4112228A, “7-(D-α-Hydroxy-2-arylacetamido)-3-(2-carboxyalkyl-2,3-dihydro-s-tri azolo-[4,3-b]pyridazin-3-on-6-ylthiomethyl)-3-cephem-4-carboxylic acids and derivatives” (priority 1977, dated 1978)
≈ marks a conversion by molar mass, not a printed value.

What was measured:
Kl. pneumoniae = test: MIC by Steers' agar dilution method; format: cell-based; conditions: Klebsiella pneumoniae
Urinary recovery in rats = format: in vivo; conditions: rat, urine, sc 10 mg./kg., 0-24 Hrs.
D. pneumoniae = test: MIC by Steers' agar dilution method
Shig. sonnei = test: MIC by Steers' agar dilution method; format: cell-based; conditions: Shigella sonnei, MHA
Sal. enteritidis = test: MIC by Steers' agar dilution method; conditions: Salmonella enterica
Sal. anthracis = test: microbe, parasite or virus in culture; format: cell-based
[1] = Nephrotoxicity test in rabbits; conditions: 100 mg./kg. (iv)
bacteria of Table 4 = test: Media effect on MIC (Nutrient, Mueller-Hinton, Heart-Infusion agar); format: cell-based; conditions: NA, MHA, HIA
S. paratyphi = test: MIC by Steers' agar dilution method; conditions: Salmonella enterica
Pr. rettgeri = test: MIC by Steers' agar dilution method; conditions: Providencia rettgeri
E. coli Juhl = test: Standard experimental infection in mice; format: in vivo; conditions: Table 6

Molecule `O=C(O)Cn1nc2ccc(SCC3=C(C(=O)O)N4C(=O)C(NC(=O)[C@H](O)c5ccccc5)[C@H]4SC3)nn2c1=O` (stereo partly drawn) [BB-S488, 7-(D-Mandelamido)-3-(2-carboxymethyl-2,3-dihydro-s-triazolo[4,3-b]pyridazin-3-on-6-ylthiomethyl)-3-cephem-4-carboxylic Acid] has an MIC (Kl. pneumoniae; A15130, MHA, Table 1) of 0.2 µg/mL (≈ 0.349 µM), an MIC (Kl. pneumoniae; Kp-1 D11, MHA, Table 3) of 0.1 µg/mL (≈ 0.175 µM) and an MIC (Kl. pneumoniae; Kp-2 A9678, MHA, Table 3) of 3.1 µg/mL (≈ 5.41 µM). It also gave an MIC (Kl. pneumoniae; Kp-3 A9977, HIA, Table 4) of 0.2 µg/mL (≈ 0.349 µM), an MIC (Kl. pneumoniae; Kp-3 A9977, MHA, Table 3) of 0.1 µg/mL (≈ 0.175 µM) and an MIC (Kl. pneumoniae; Kp-3 A9977, MHA, Table 4) of 0.2 µg/mL (≈ 0.349 µM). The MIC (Kl. pneumoniae; Kp-3 A9977, NA, Table 4) was 0.4 µg/mL (≈ 0.699 µM), the MIC (Kl. pneumoniae; Kp-4 A15130, HIA, Table 4) was 0.8 µg/mL (≈ 1.4 µM) and the MIC (Kl. pneumoniae; Kp-4 A15130, MHA, Table 3) was 0.2 µg/mL (≈ 0.349 µM). The MIC (Kl. pneumoniae; Kp-4 A15130, MHA, Table 4) was 0.4 µg/mL (≈ 0.699 µM), the MIC (Kl. pneumoniae; Kp-4 A15130, NA, Table 4) was 0.8 µg/mL (≈ 1.4 µM) and the MIC (Kl. pneumoniae; Kp-7 A9867, MHA, Table 3) was 0.4 µg/mL (≈ 0.699 µM). For the same molecule, the MIC (Kl. pneumoniae; Kp-8 A20680, MHA, Table 3) was 25 µg/mL (≈ 43.7 µM), the MIC (Kl. pneumoniae; Kp-9 A20636, MHA, Table 3) was 12.5 µg/mL (≈ 21.8 µM) and the MIC (Kl. pneumoniae; Kp-10 A20328, MHA, Table 3) was 6.3 µg/mL (≈ 11 µM). The MIC (Kl. pneumoniae; Kp-11 A20330, MHA, Table 3) was 1.6 µg/mL (≈ 2.79 µM), the MIC (Kl. pneumoniae; Kp-12 A21228, MHA, Table 3) was 6.3 µg/mL (≈ 11 µM) and the MIC (Kl. pneumoniae; strain not named (1st of 4), MHA, Example 10) was 3.1 µg/mL (≈ 5.41 µM). The MIC (Kl. pneumoniae; strain not named (2nd of 4), MHA, Example 10) was 0.1 µg/mL (≈ 0.175 µM), the MIC (Kl. pneumoniae; strain not named (3rd of 4), MHA, Example 10) was 0.4 µg/mL (≈ 0.699 µM) and the MIC (Kl. pneumoniae; strain not named (4th of 4), MHA, Example 10) was 0.2 µg/mL (≈ 0.349 µM). For the same molecule, the dose excreted at 24 h (Urinary recovery in rats) was 38.8%, the MIC (D. pneumoniae; Dp-2 Type I Neufeld, MHA, Table 2) was 0.2 µg/mL (≈ 0.349 µM) and the MIC (D. pneumoniae; Dp-3 Type III, MHA, Table 2) was 0.2 µg/mL (≈ 0.349 µM). The MIC (D. pneumoniae; Dp-4 A9585, MHA, Table 2) was 0.2 µg/mL (≈ 0.349 µM), the MIC (D. pneumoniae; Dp-5 A15069, MHA, Table 2) was 0.2 µg/mL (≈ 0.349 µM) and the MIC (D. pneumoniae; Dp-6 A20167, MHA, Table 2) was 0.2 µg/mL (≈ 0.349 µM). For the same molecule, the MIC (D. pneumoniae; Dp-7 A20759, MHA, Table 2) was 0.2 µg/mL (≈ 0.349 µM), the MIC (D. pneumoniae; Dp-8 A20769, MHA, Table 2) was 0.2 µg/mL (≈ 0.349 µM) and the MIC (D. pneumoniae; Dp-9 A20770, MHA, Table 2) was 0.2 µg/mL (≈ 0.349 µM). It also gave an MIC (D. pneumoniae; Streptococcus pneumoniae) of 0.2 µg/mL (≈ 0.349 µM), an MIC (Shig. sonnei; A9516, Table 1) of 0.025 µg/mL (≈ 0.0437 µM) and an MIC (Shig. sonnei; Example 10) of 0.05 µg/mL (≈ 0.0873 µM). For the same molecule, the MIC (Shig. sonnei; Ss-1 Yale, Table 3) was 0.1 µg/mL (≈ 0.175 µM), the MIC (Sal. enteritidis; A9531, MHA, Table 1) was 0.05 µg/mL (≈ 0.0873 µM) and the MIC (Sal. enteritidis; MHA, Example 10) was 0.025 µg/mL (≈ 0.0437 µM). The MIC (Sal. enteritidis; Se-1 A9531, MHA, Table 3) was 0.1 µg/mL (≈ 0.175 µM), the MIC (Sal. anthracis) was 0.1 µg/mL (≈ 0.175 µM) and the Nephrotoxicity [1] was “No nephrotoxic sign was seen”. The “Media effect on MIC” value (bacteria of Table 4) was “little media effect”, the MIC (S. paratyphi) was 0.1 µg/mL (≈ 0.175 µM) and the MIC (Pr. rettgeri; A15167, MHA, Table 1) was 0.05 µg/mL (≈ 0.0873 µM). The MIC (Pr. rettgeri; MHA, Example 10) was 0.2 µg/mL (≈ 0.349 µM), the MIC (Pr. rettgeri; Pr-1 A15167, HIA, Table 4) was 0.1 µg/mL (≈ 0.175 µM) and the MIC (Pr. rettgeri; Pr-1 A15167, MHA, Table 3) was 0.1 µg/mL (≈ 0.175 µM). The MIC (Pr. rettgeri; Pr-1 A15167, MHA, Table 4) was 0.05 µg/mL (≈ 0.0873 µM), the MIC (Pr. rettgeri; Pr-1 A15167, NA, Table 4) was 0.4 µg/mL (≈ 0.699 µM) and the MIC (Pr. rettgeri; Pr-2 A9637, MHA, Table 3) was 0.1 µg/mL (≈ 0.175 µM). The MIC (Pr. rettgeri; Pr-4 A20645, MHA, Table 3) was 0.1 µg/mL (≈ 0.175 µM), the MIC (Pr. rettgeri; Pr-5 A20915, MHA, Table 3) was 0.2 µg/mL (≈ 0.349 µM) and the MIC (Pr. rettgeri; Pr-6 A20920, MHA, Table 3) was 0.1 µg/mL (≈ 0.175 µM). For the same molecule, the “No. of survivors/No. tested” value (E. coli Juhl; 0.1 mg./kg.) was 2/5, the “No. of survivors/No. tested” value (E. coli Juhl; 0.4 mg./kg.) was 5/5 and the “No. of survivors/No. tested” value (E. coli Juhl; 1.6 mg./kg.) was 5/5. For the same molecule, the “No. of survivors/No. tested” value (E. coli Juhl; 6.3 mg./kg.) was 5/5, the “No. of survivors/No. tested” value (E. coli Juhl; 25 mg./kg.) was 5/5 and the ED50 (E. coli Juhl; Escherichia coli, read-out: PD50) was 0.12 mg/kg.
